Laboratory results: US20030060511A1, “Method for treatment of ocular hypertension and glaucoma” (SUCAMPO AG, priority 2001, published 2003)

Tests used:
IOP in Normal Monkeys [1] = assay: IOP in normal monkeys after single topical application of eye drops (Example 1); assay type: in vivo, cynomolgus monkeys; conditions: for IOP lowering (change in IOP from time 0, ΔIOP): single administration, significant vs vehicle control (Dunnett's test)
Method: Male cynomolgus monkeys (eight monkeys, body weights 3.0-4.5 kg) were used. To the right eyes of the monkeys, 30 μL/eye of 0.005% 13,14-dihydro-15-keto-17-phenyl-18,19,20-trinor-PGF2α-isopropyl ester eye drops, 0.005% 13,14-dihydro-17-phenyl-18,19,20-trinor-PGF2α-isopropyl ester (latanoprost) eye drops or the vehicle was administered once with an interval of at least seven days, and the IOPs in the respective animals was measured.
(§1) The animals were retained in the sitting position under systemic anesthesia with intramuscular injection of ketamine hydrochloride (Ketalar® 50, Sankyo Co. Ltd.) 7.5-10 mg/kg and their ocular surfaces were anesthetized with 0.4% oxybuprocaine hydrochloride (Benoxil® 0.4% solution, Santen Pharmaceuticals Co., Ltd.). After that, the IOP was measured with a pneumatonometer (Model 30 Classic, Mentor O & O, Inc.). The IOP was measured before (0 hour) and at 2, 4, 8, 12 and 24 hours after the administration of the test substances.
Changes of the IOP from that of time 0 (ΔIOP) obtained in the each test groups were compared to that obtained in the vehicle-administered control group at each measurement times. Statistical analysis was made with the Dunnett's multiple comparison test. Critical rates less than 5% were evaluated to be statistically significant.

IOP in Normal Monkeys [2] = assay: IOP in normal monkeys after single topical application of eye drops, saline in the other eye (Example 2); assay type: in vivo, cynomolgus monkeys; conditions: 0.005% eye drops, 30 μL/eye, IOP measured up to 24 hours, compared to saline eye
Method: Male cynomolgus monkeys (eight monkeys, body weights 3.0-4.5 kg) were used. To the right eyes of the monkeys, 30 μL/eye of 0.005% 13,14-dihydro-15-keto-18-phenyl-19,20-dinor-PGF2α-isopropyl ester eye drops or 0.005% 13,14-dihydro-15-keto-17-phenoxy-18,19,20-trinor-PGF2α-isopropyl ester eye drops were administered, and to the left eyes, 30 μL/eye of saline was administered. IOP of the animals were determined.
as §1, with “The IOPs were” for “The IOP was”, “of” for “of the”
Changes of the IOP from that of time 0 (ΔIOP) obtained in the each test eyes ([…] eyes) were compared to those obtained in the vehicle administrated eyes (control group) at each measurement times.

FP receptor = FP receptor (Homo sapiens, UniProt P43088); conditions: background art; cited from earlier work
Chain of FP receptor (P43088 whole entry): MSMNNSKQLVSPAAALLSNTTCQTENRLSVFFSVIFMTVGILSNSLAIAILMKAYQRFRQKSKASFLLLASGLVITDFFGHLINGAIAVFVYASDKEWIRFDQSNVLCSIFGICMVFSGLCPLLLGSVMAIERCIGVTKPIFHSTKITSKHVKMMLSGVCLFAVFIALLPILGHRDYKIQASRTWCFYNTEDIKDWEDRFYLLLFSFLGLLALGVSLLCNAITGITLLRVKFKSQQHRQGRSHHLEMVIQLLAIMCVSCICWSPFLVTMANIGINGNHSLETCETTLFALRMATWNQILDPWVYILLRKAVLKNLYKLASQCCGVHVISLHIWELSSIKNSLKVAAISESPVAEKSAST

Compound | Duration of IOP lowering by single administration (IOP in Normal Monkeys [2]) | Affinity with / effect on FP receptor (FP receptor) | further results
CC(C)OC(=O)CCC/C=C\C[C@@H]1[C@@H](CCC(=O)CCc2ccccc2)[C@H](O)C[C@@H]1O [13,14-dihydro-15-keto-17-phenyl-18,19,20-trinor-PGF2α-isopropyl ester] | – | – | Difference of ΔIOPs versus latanoprost group (IOP in Normal Monkeys [1]; 0.005% eye drops each, at any time point of the measurement (2-24 hours)): no significant difference; Duration of IOP lowering by single administration (IOP in Normal Monkeys [1]; 0.005% eye drops, 30 μL/eye, IOP measured up to 24 hours): can lower the IOP and keep the low IOP throughout the day; IOP lowering (change in IOP from time 0, ΔIOP) (IOP in Normal Monkeys [1]; 0.005% eye drops, 30 μL/eye, 4 hours after administration): 2.3±0.4 mmHg; IOP lowering (change in IOP from time 0, ΔIOP) (IOP in Normal Monkeys [1]; 0.005% eye drops, 30 μL/eye, 8 hours after administration): 2.1±0.4 mmHg; IOP lowering (change in IOP from time 0, ΔIOP) (IOP in Normal Monkeys [1]; 0.005% eye drops, 30 μL/eye, 12 hours after administration): 2.4±0.5 mmHg
CC(C)OC(=O)CCC/C=C\CC1C(O)CC(O)C1CCC(=O)CCOc1ccccc1 (stereo not drawn) [13,14-dihydro-15-keto-17-phenoxy-18,19,20-trinor-PGF2α-isopropyl ester] | can lower the IOP and keep the low IOP throughout a day | – | –
CCCCC[C@H](O)/C=C/[C@@H]1[C@@H](C/C=C\CCCC(=O)O)[C@@H](O)C[C@H]1O [PGF2α] | – | strong affinity | –
CC(C)OC(=O)CCC/C=C\CC1C(O)CC(O)C1CCC(=O)CCCc1ccccc1 (stereo not drawn) [13,14-dihydro-15-keto-18-phenyl-19,20-dinor-PGF2α-isopropyl ester] | can lower the IOP and keep the low IOP throughout a day | – | –
CCCCCCCC(=O)CC[C@@H]1[C@@H](C/C=C\CCCC(=O)OC(C)C)[C@@H](O)C[C@H]1O [isopropyl unoprostone, 13,14-dihydro-15-keto-20-ethyl-PGF2α-isopropyl ester] | – | substantially no effect | –
CC(C)OC(=O)CCC/C=C\C[C@@H]1[C@@H](CC[C@@H](O)CCc2ccccc2)[C@H](O)C[C@@H]1O [latanoprost, 13,14-dihydro-17-phenyl-18,19,20-trinor-PGF2α-isopropyl ester] | – | strong affinity | –
